According to patent US6737383B1, “Herbicidal oxadiazolidines” (priority 1999, dated 2004):

Tests used:
bedstraw = test: Test B pre/postemergence bedstraw; format: in vivo, Galium aparine
In short: (§1)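 Herbicidal effect was estimated by eye on a ten-point control scale after plants spent twelve to sixteen days in a greenhouse following soil or foliar treatment. Foliar sprays targeted plants at one to four leaves; all doses were formulated in a non-phytotoxic solvent with surfactant.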

surinam grass = test: Test B pre/postemergence surinam grass; format: in vivo, Brachiaria decumbens
In short: as §1

cocklebur = test: Test B pre/postemergence cocklebur; format: in vivo, Xanthium strumarium
In short: as §1

corn = test: Test B pre/postemergence corn; format: in vivo, Zea mays
In short: as §1

crabgrass = test: Test B pre/postemergence crabgrass; format: in vivo, Digitaria sanguinalis
In short: as §1

morningglory = test: Test B pre/postemergence morningglory; format: in vivo, Ipomoea hederacea
In short: as §1

pigweed = test: Test B pre/postemergence pigweed; format: in vivo, Amaranthus retroflexus
In short: as §1

rape = test: Test B pre/postemergence rape; format: in vivo, Brassica napus
In short: as §1

soybean = test: Test B pre/postemergence soybean; format: in vivo, Glycine max
In short: as §1

sugar beet = test: Test B pre/postemergence sugar beet; format: in vivo, Beta vulgaris
In short: as §1

velvetleaf = test: Test B pre/postemergence velvetleaf; format: in vivo, Abutilon theophrasti
In short: as §1

wild oat = test: Test B pre/postemergence wild oat; format: in vivo, Avena fatua
In short: as §1

rice = test: Test B flood test rice; format: in vivo, Oryza sativa
In short: (§2)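 Read-out is a visual response score from 0 (no effect) to 10 (complete control), assigned by comparison with untreated controls. Treatment was applied at the 2-leaf stage, and plants stayed in the greenhouse for twelve to sixteen days before scoring.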

smallflower flatsedge = test: Test B flood test smallflower flatsedge; format: in vivo, Cyperus difformis
In short: as §2

duck salad = test: Test B flood test duck salad; format: in vivo, Heteranthera limosa
In short: as §2

bamyardgrass = test: Test B flood test barnyardgrass; format: in vivo, Echinochloa crus-galli
In short: as §2

[1] = Preemergence, Rate 62 g/ha, scale of 0 to 10 where 0 is no effect and 10 is complete control
[2] = Preemergence, Rate 500 g/ha, scale of 0 to 10 where 0 is no effect and 10 is complete control
[3] = Rate 62 g/ha, Postemergence, scale of 0 to 10 where 0 is no effect and 10 is complete control
[4] = Rate 125 g/ha, Postemergence, scale 0 to 10
[5] = Rate 125 g/ha, Preemergence, scale of 0 to 10 where 0 is no effect and 10 is complete control
[6] = Rate 500 g/ha, Postemergence, scale 0 to 10, 0 no effect, 10 complete control
[7] = Preemergence, Rate 250 g/ha, scale of 0 to 10 where 0 is no effect and 10 is complete control
[8] = Rate 62 g/ha, headed Pre-emergence (flood test species), scale 0 to 10 (0 no effect, 10 complete control)
[9] = Rate 125 g/ha, Pre-emergence, flood test species, scale 0 to 10 where 0 is no effect and 10 is complete control
[10] = Rate 250 g/ha, Pre-emergence, flood-test species, scale 0 to 10, 0 is no effect, 10 is complete control
[11] = Rate 500 g/ha, Pre-emergence, flood test species, scale 0 to 10 (0 no effect, 10 complete control)

CON=C(Cn1c(=O)on(C(=O)N(c2ccc(F)cc2)C(C)C)c1=O)C(F)(F)F [Compound 227]
8: Bedstraw plant response rating (bedstraw; [4]) | Plant response rating (0 to 10; 0 is no effect, 10 is complete control), Bedstraw (bedstraw; Rate 250 g/ha, Postemergence) | Bedstraw plant response rating (bedstraw; [6]) | Plant response rating (0 to 10; 0 is no effect, 10 is complete control), Morningglory (morningglory; Rate 250 g/ha, Postemergence) | Rape plant response rating (rape; [7]) | Plant response rating, Sugarbeets (sugar beet; [2])
10: Crabgrass plant response rating (crabgrass; [7]) | Plant response rating, Crabgrass (crabgrass; [2]) | Crabgrass plant response rating (crabgrass; [5]) | Morningglory plant response rating (morningglory; [6]) | Redroot pigweed plant response rating (pigweed; [7]) | Plant response rating, Redroot pigweed (pigweed; [2]) | Plant response rating, Rape (rape; [2])
4: Morningglory plant response rating (morningglory; [3]) | Morningglory plant response rating (morningglory; [4]) | Rape plant response rating (rape; [5]) | Plant response rating (0 to 10; 0 is no effect, 10 is complete control), Soybean (soybean; Rate 250 g/ha, Postemergence)
3: Plant response rating, Bedstraw (bedstraw; [2]) | Cocklebur plant response rating (cocklebur; [6]) | Crabgrass plant response rating (crabgrass; [6]) | Redroot pigweed plant response rating (pigweed; [1]) | Soybean plant response rating (soybean; [4]) | Sugarbeets plant response rating (sugar beet; [5]) | Plant response rating (0 to 10; 0 is no effect, 10 is complete control), Sugarbeets (sugar beet; Rate 250 g/ha, Postemergence) | Velvetleaf plant response rating (velvetleaf; [6]) | Wild oats plant response rating (wild oat; [7]) | Plant response rating, Wild oats (wild oat; [2])
7: Bedstraw plant response rating (bedstraw; [3]) | Redroot pigweed plant response rating (pigweed; [6])
2: Plant response rating, B. signalgrass (surinam grass; [2]) | Plant response rating (0 to 10; 0 is no effect, 10 is complete control), Cocklebur (cocklebur; Rate 250 g/ha, Postemergence) | Redroot pigweed plant response rating (pigweed; [4]) | Plant response rating, Soybean (soybean; [2]) | Sugarbeets plant response rating (sugar beet; [1]) | Plant response rating, Velvetleaf (velvetleaf; [2]) | Wild oats plant response rating (wild oat; [6])
1: Crabgrass plant response rating (crabgrass; [1]) | Soybean plant response rating (soybean; [3])
6: Sugarbeets plant response rating (sugar beet; [7])
0: Bedstraw plant response rating (bedstraw; [1]) | Bedstraw plant response rating (bedstraw; [5]) | B. signalgrass plant response rating (surinam grass; [1]) | B. signalgrass plant response rating (surinam grass; Preemergence, Rate 250 g/ha, scale 0 to 10, 0 is no effect, 10 is complete control) | B. signalgrass plant response rating (surinam grass; [3]) | B. signalgrass plant response rating (surinam grass; Rate 125 g/ha, Postemergence, scale 0 (no effect) to 10 (complete control)) | B. signalgrass plant response rating (surinam grass; [5]) | Plant response rating (0 to 10; 0 is no effect, 10 is complete control), B. signalgrass (surinam grass; Rate 250 g/ha, Postemergence) | B. signalgrass plant response rating (surinam grass; [6]) | Cocklebur plant response rating (cocklebur; [1]) | Cocklebur plant response rating (cocklebur; [7]) | Plant response rating, Cocklebur (cocklebur; [2]) | Cocklebur plant response rating (cocklebur; [3]) | Cocklebur plant response rating (cocklebur; [4]) | Cocklebur plant response rating (cocklebur; [5]) | Corn plant response rating (corn; [1]) | Corn plant response rating (corn; [7]) | Plant response rating, Corn (corn; [2]) | Corn plant response rating (corn; [3]) | Corn plant response rating (corn; [4]) | Corn plant response rating (corn; [5]) | Plant response rating (0 to 10; 0 is no effect, 10 is complete control), Corn (corn; Rate 250 g/ha, Postemergence) | Corn plant response rating (corn; [6]) | Crabgrass plant response rating (crabgrass; [3]) | Crabgrass plant response rating (crabgrass; [4]) | Plant response rating (0 to 10; 0 is no effect, 10 is complete control), Crabgrass (crabgrass; Rate 250 g/ha, Postemergence) | Morningglory plant response rating (morningglory; [1]) | Morningglory plant response rating (morningglory; [7]) | Plant response rating, Morningglory (morningglory; [2]) | Morningglory plant response rating (morningglory; [5]) | Redroot pigweed plant response rating (pigweed; [3]) | Rape plant response rating (rape; [1]) | Rape plant response rating (rape; [3]) | Rape plant response rating (rape; [4]) | Plant response rating (0 to 10; 0 is no effect, 10 is complete control), Rape (rape; Rate 250 g/ha, Postemergence) | Rape plant response rating (rape; [6]) | Soybean plant response rating (soybean; [1]) | Soybean plant response rating (soybean; [7]) | Soybean plant response rating (soybean; [5]) | Sugarbeets plant response rating (sugar beet; [3]) | Sugarbeets plant response rating (sugar beet; [4]) | Velvetleaf plant response rating (velvetleaf; [1]) | Velvetleaf plant response rating (velvetleaf; [7]) | Velvetleaf plant response rating (velvetleaf; [3]) | Velvetleaf plant response rating (velvetleaf; [4]) | Velvetleaf plant response rating (velvetleaf; [5]) | Plant response rating (0 to 10; 0 is no effect, 10 is complete control), Velvetleaf (velvetleaf; Rate 250 g/ha, Postemergence) | Wild oats plant response rating (wild oat; [1]) | Wild oats plant response rating (wild oat; [3]) | Wild oats plant response rating (wild oat; [4]) | Wild oats plant response rating (wild oat; [5]) | Plant response rating (0 to 10; 0 is no effect, 10 is complete control), Wild oats (wild oat; Rate 250 g/ha, Postemergence) | Rice plant response rating (rice; [8]) | Rice plant response rating (rice; [9]) | Rice plant response rating (rice; [10]) | Rice plant response rating (rice; [11]) | S. Flatsedge plant response rating (smallflower flatsedge; [8]) | S. Flatsedge plant response rating (smallflower flatsedge; [9]) | S. Flatsedge plant response rating (smallflower flatsedge; [10]) | S. Flatsedge plant response rating (smallflower flatsedge; [11]) | Ducksalad plant response rating (duck salad; [8]) | Ducksalad plant response rating (duck salad; [9]) | Ducksalad plant response rating (duck salad; [10]) | Ducksalad plant response rating (duck salad; [11]) | Barnyardgrass plant response rating (bamyardgrass; [8]) | Barnyardgrass plant response rating (bamyardgrass; [9]) | Barnyardgrass plant response rating (bamyardgrass; [10]) | Barnyardgrass plant response rating (bamyardgrass; [11])
5: Redroot pigweed plant response rating (pigweed; [5]) | Plant response rating (0 to 10; 0 is no effect, 10 is complete control), Redroot pigweed (pigweed; Rate 250 g/ha, Postemergence) | Soybean plant response rating (soybean; [6]) | Sugarbeets plant response rating (sugar beet; [6])
